This is an account of results in US20250171438A1 (Agios Pharmaceuticals, Inc., priority 2022, published 2025).

Like-named read-outs stand apart in the source and are kept apart here.

For this experiment, the target named is T1, human PAH with the R408W mutation (Homo sapiens, UniProt P00439, R408W).
T1 construct: expressed in transfected cells
T1 sequence (P00439 1-452 R408W): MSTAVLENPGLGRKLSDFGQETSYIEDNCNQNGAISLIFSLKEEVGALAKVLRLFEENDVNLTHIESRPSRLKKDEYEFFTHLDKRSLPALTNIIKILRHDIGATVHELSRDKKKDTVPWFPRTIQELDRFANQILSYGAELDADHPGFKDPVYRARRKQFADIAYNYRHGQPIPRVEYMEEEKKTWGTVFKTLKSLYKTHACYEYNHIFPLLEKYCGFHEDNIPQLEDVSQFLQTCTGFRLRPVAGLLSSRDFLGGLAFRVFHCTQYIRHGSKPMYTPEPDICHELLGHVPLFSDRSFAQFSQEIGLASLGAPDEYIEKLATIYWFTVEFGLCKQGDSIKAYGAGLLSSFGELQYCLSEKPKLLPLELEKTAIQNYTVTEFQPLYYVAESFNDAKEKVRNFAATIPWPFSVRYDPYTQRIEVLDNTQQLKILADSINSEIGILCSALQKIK
Description: Cell Based Phenylalanine Flux Assay. The conditions noted are these: A375 cells expressing human R408W PAH, 13C-Tyrosine by LC-MS, average where tested multiple times, read-out: AC50.

In the case of `Cn1nc(Cl)nc1C(=O)N1CCc2[nH]cnc2[C@H]1c1nc2c(F)cccc2s1` [Example 1955], the concentration at half-maximal activity (AC50) (commonly the concentration at which the activity in the assay is half-maximal) (24 hrs compound incubation) was below 500 nM. Take `CC1CN(C(=O)c2cnc(CN(C)C)o2)C(c2nc3ccccc3s2)c2nc[nH]c21` (stereo not drawn): the AC50 (24 hrs with compound) was above 5000 nM.

For the compound `O=C(c1oc(C2CC2)nc1C(F)(F)F)N1CCc2[nH]cnc2[C@H]1c1nc2c(F)cccc2s1` [Example 2183, (S)-(2-cyclopropyl-4-(trifluoromethyl)oxazol-5-yl)(4-(4-fluorobenzo[d]thiazol-2-yl)-1,4,6,7-tetrahydro-5H-imidazo[4,5-c]pyridin-5-yl)methanone], the concentration at half-maximal activity (AC50) (24 hrs compound incubation) is below 500 nM.

For `O=C(c1cnn2cc(Cl)ccc12)N1CCc2[nH]cnc2C1c1nc2ccc(F)cc2s1` (stereo not drawn), the AC50 (24 hrs with compound) was above 5000 nM. As for `COc1cccc(CCCC(=O)N2CCc3[nH]cnc3[C@@H]2c2nc3ccccc3[nH]2)c1` [Example 918, (R)-1-(4-(1H-benzo[d]imidazol-2-yl)-6,7-dihydro-1H-imidazo[4,5-c]pyridin-5(4H)-yl)-4-(3-methoxyphenyl)butan-1-one], under “24 hrs compound incubation”, the AC50 is above 5000 nM. As for `O=C(c1cnn2c(Br)cccc12)N1CCc2[nH]cnc2[C@@H]1c1nc2c(F)cccc2s1` [Example 1240, (R)-(7-bromopyrazolo[1,5-a]pyridin-3-yl)(4-(4-fluorobenzo[d]thiazol-2-yl)-6,7-dihydro-1H-imidazo[4,5-c]pyridin-5(4H)-yl)methanone], the concentration at half-maximal activity (AC50) (24 hrs compound incubation) was 1000 to 5000 nM. As for `N#Cc1ncoc1C(=O)N1CC2(CC2)c2[nH]cnc2[C@H]1c1nc2ccccc2s1` [Example 1664, (S)-5-(4′-(benzo[d]thiazol-2-yl)-1′,4′,5′,6′-tetrahydrospiro[cyclopropane-1,7′-imidazo[4,5-c]pyridin]-5′-ylcarbonyl)oxazole-4-carbonitrile], the AC50 (24 hrs compound incubation) was in the range of 1000 to 5000 nM. As to `O=C(c1ccno1)N1CCc2[nH]cnc2[C@H]1c1nc2ccccc2s1` [Example 1123], the AC50 (24 hrs compound incubation) is 500 to 1000 nM. For the compound `COCCNc1nnc(C(=O)N2CCc3[nH]cnc3C2c2nc3ccccc3s2)o1` (stereo not drawn), the AC50 (24 hrs with compound) was in the range of 1000 to 5000 nM. Turning to `Cc1nc(N2CCN(C)CC2)oc1C(=O)N1CCc2[nH]cnc2C1c1nc2c(F)cccc2s1` (stereo not drawn), the concentration at half-maximal activity (AC50) (24 hrs with compound) is above 5000 nM.

As to `CC(C)(O)c1ncc(C(=O)N2CCc3[nH]cnc3[C@@H]2c2nc3ccccc3s2)s1` [Example 1436, (R)-(4-(benzo[d]thiazol-2-yl)-6,7-dihydro-1H-imidazo[4,5-c]pyridin-5(4H)-yl)(2-(2-hydroxypropan-2-yl)thiazol-5-yl)methanone], for the setting “24 hrs compound incubation”, the concentration at half-maximal activity (AC50) lay in the range of 1000 to 5000 nM.

Take `O=C(c1cc2ccccn2c1)N1CCc2[nH]cnc2[C@H]1c1nc2ccccc2s1` (single isomer, unassigned): under “24 hrs with compound”, the AC50 was 1000 to 5000 nM. For `CC(C)(O)c1nc(C(F)F)c(C(=O)N2CCc3[nH]cnc3[C@@H]2c2nc3c(C(F)(F)F)cccc3s2)o1` [Example 2104, (R)-(4-(difluoromethyl)-2-(2-hydroxypropan-2-yl)oxazol-5-yl)(4-(4-(trifluoromethyl)benzo[d]thiazol-2-yl)-6,7-dihydro-1H-imidazo[4,5-c]pyridin-5(4H)-yl)methanone], the AC50 (24 hrs compound incubation) was 500 to 1000 nM.

`O=C(c1ncco1)N1CCc2[nH]cnc2C1c1nc2cc(F)ccc2s1` (stereo not drawn): the AC50 (24 hrs with compound) was above 5000 nM. Consider `CN(C)Cc1nc(C(=O)N2CCc3[nH]cnc3C2c2nc3ccccc3s2)no1` (stereo not drawn), for which the AC50 (24 hrs with compound) fell in the range of 1000 to 5000 nM. Turning to `O=C(Cc1nccs1)N1CCc2[nH]cnc2C1c1nc2ccc(F)cc2[nH]1` (stereo not drawn), the AC50 (24 hrs with compound) is 1000 to 5000 nM.

On to `O=C(CCc1nccs1)N1CCc2[nH]cnc2[C@@H]1c1nc(-c2ccccc2)cs1` [Example 2144, (R)-1-(4-(4-phenylthiazol-2-yl)-6,7-dihydro-1H-imidazo[4,5-c]pyridin-5(4H)-yl)-3-(thiazol-2-yl)propan-1-one], for which, for the setting “24 hrs compound incubation”, the AC50 was above 5000 nM. As to `O=C(c1cnn2ccccc12)N1CCc2[nH]cnc2[C@@H]1c1nc2cccc(F)c2[nH]1` [Example 991, (R)-(4-(7-fluoro-1H-benzo[d]imidazol-2-yl)-6,7-dihydro-1H-imidazo[4,5-c]pyridin-5(4H)-yl)(pyrazolo[1,5-a]pyridin-3-yl)methanone], where the note is “24 hrs compound incubation”, the AC50 was above 5000 nM. Take `O=C(c1cc2ccccn2n1)N1CCc2nc[nH]c2C1c1nc2ccccc2s1` (stereo not drawn): the AC50 (24 hrs with compound) is above 5000 nM. In the case of `O=C(CC1CC(F)(F)C1)N1CCc2[nH]cnc2[C@H]1c1nc2ccccc2s1` [Example 1277], the AC50 (24 hrs compound incubation) was below 500 nM. For the compound `O=C(c1oc(C2CC(F)(F)C2)nc1C(F)F)N1CCc2[nH]cnc2[C@H]1c1nc2ccccc2s1` [Example 1786], the concentration at half-maximal activity (AC50) (24 hrs compound incubation) is below 500 nM. `O=C(Cc1noc2ccccc12)N1CCc2[nH]cnc2C1c1nc2ccccc2[nH]1` (stereo not drawn): the AC50 (24 hrs with compound) fell in the range of 1000 to 5000 nM. On to `CC(O)c1nc(Cl)c(C(=O)N2CCc3[nH]cnc3[C@H]2c2nc3c(F)cccc3s2)o1` (single isomer, unassigned) [Example 2079], for which the AC50 (24 hrs compound incubation) was below 500 nM.

Turning to `O=C(c1cnn(CCO)c1Cl)N1CCc2[nH]cnc2C1c1nc2c(F)cccc2s1` (stereo not drawn), for the setting “24 hrs with compound”, the AC50 was 1000 to 5000 nM. As for `O=C(c1oc(-c2ccc(F)cn2)nc1C(F)F)N1CCc2[nH]cnc2[C@H]1c1nc2ccccc2s1` [Example 1746], where the note is “24 hrs compound incubation”, the AC50 is below 500 nM. On to `Cc1c(-c2ncc(C(=O)N3CCc4[nH]cnc4[C@@H]3c3nc4ccccc4s3)s2)cnn1C` [Example 1360, (R)-(4-(benzo[d]thiazol-2-yl)-6,7-dihydro-1H-imidazo[4,5-c]pyridin-5(4H)-yl)(2-(1,5-dimethyl-1H-pyrazol-4-yl)thiazol-5-yl)methanone], for which the AC50 (24 hrs compound incubation) is 1000 to 5000 nM.

Regarding `COCCc1nc(C)c(C(=O)N2CCc3[nH]cnc3[C@@H]2c2nc3ccccc3s2)o1` [Example 1730, (R)-(4-(benzo[d]thiazol-2-yl)-1,4,6,7-tetrahydro-5H-imidazo[4,5-c]pyridin-5-yl)(2-(2-methoxyethyl)-4-methyloxazol-5-yl)methanone], the AC50 (24 hrs compound incubation) was above 5000 nM. Turning to `O=C(c1cnc(-c2cnn(CC(F)(F)F)c2)s1)N1CCc2[nH]cnc2[C@H]1c1nc2ccccc2s1` [Example 1361], for the setting “24 hrs compound incubation”, the AC50 is below 500 nM. For `CC1CN(C(=O)c2cnn3cc(CN(C)C)ccc23)C(c2nc3ccccc3s2)c2nc[nH]c21` (stereo not drawn), for the setting “24 hrs with compound”, the AC50 lay in the range of 1000 to 5000 nM. With `O=C(c1cnn2cccc(F)c12)N1CCc2[nH]cnc2C1c1nc2c(F)cccc2s1` (stereo not drawn), the AC50 (24 hrs with compound) is above 5000 nM.

For the compound `O=C(CC1CC1)N1CCc2[nH]cnc2[C@@H]1c1nc2ccc(Br)cc2[nH]1` [Example 946, (R)-1-(4-(6-bromo-1H-benzo[d]imidazol-2-yl)-6,7-dihydro-1H-imidazo[4,5-c]pyridin-5(4H)-yl)-2-cyclopropylethanone], where the note is “24 hrs compound incubation”, the AC50 fell in the range of 500 to 1000 nM.

In the case of `Cc1c(C(=O)N2CCc3[nH]cnc3[C@@H]2c2nc3c(F)cccc3s2)cnn1-c1ccccn1` [Example 1934, (R)-(4-(4-fluorobenzo[d]thiazol-2-yl)-6,7-dihydro-1H-imidazo[4,5-c]pyridin-5(4H)-yl)(5-methyl-1-(pyridin-2-yl)-1H-pyrazol-4-yl)methanone], the AC50 (24 hrs compound incubation) was above 5000 nM. Regarding `O=C(c1cnn(C2CC2)c1Cl)N1CCc2[nH]cnc2[C@@H]1c1nc2c(F)cccc2s1` [Example 1970, (R)-(5-chloro-1-cyclopropyl-1H-pyrazol-4-yl)(4-(4-fluorobenzo[d]thiazol-2-yl)-6,7-dihydro-1H-imidazo[4,5-c]pyridin-5(4H)-yl)methanone], the AC50 (24 hrs compound incubation) lay within 1000 to 5000 nM.

For the compound `Cc1n[nH]cc1-c1nnc(C(=O)N2CCc3[nH]cnc3[C@H]2c2nc3ccccc3s2)o1` [Example 1941], the AC50 (24 hrs compound incubation) was below 500 nM. In the case of `Cc1ccc2nc([C@@H]3c4nc[nH]c4CCN3C(=O)c3cnco3)sc2c1` [Example 2175, (S)-(4-(6-methylbenzo[d]thiazol-2-yl)-6,7-dihydro-1H-imidazo[4,5-c]pyridin-5(4H)-yl)(oxazol-5-yl)methanone], the AC50 (24 hrs compound incubation) lay in the range of 500 to 1000 nM. Turning to `O=C(c1nnc(-c2ccc(F)cn2)o1)N1CCc2[nH]cnc2[C@H]1c1nc2ccccc2s1` (single isomer, unassigned) [Example 1365], the AC50 (24 hrs compound incubation) was below 500 nM. As to `O=C(CCCc1nc2ccccc2s1)N1CCc2[nH]cnc2[C@H]1c1nc2ccccc2[nH]1` [(S)-1-(4-(1H-benzo[d]imidazol-2-yl)-1,4,6,7-tetrahydro-5H-imidazo[4,5-c]pyridin-5-yl)-4-(benzo[d]thiazol-2-yl)butan-1-one], the AC50 (24 hrs with compound) fell in the range of 1000 to 5000 nM. Same read-out and setting: for `O=C(Cn1cncn1)N1CCc2[nH]cnc2[C@H]1c1nc2ccccc2[nH]1` [(S)-1-(4-(1H-benzo[d]imidazol-2-yl)-6,7-dihydro-1H-imidazo[4,5-c]pyridin-5(4H)-yl)-2-(1H-1,2,4-triazol-1-yl)ethanone] the value was above 5000 nM.

Regarding `Cc1cnc(CC(=O)N2CCc3[nH]cnc3[C@@H]2c2nc3ccccc3s2)s1` [Example 1458, (R)-1-(4-(benzo[d]thiazol-2-yl)-6,7-dihydro-1H-imidazo[4,5-c]pyridin-5(4H)-yl)-2-(5-methylthiazol-2-yl)ethanone], the AC50 (24 hrs compound incubation) lay in the range of 1000 to 5000 nM. Turning to `O=C(CC1CC1)N1CCc2[nH]cnc2[C@@H]1c1nc2cc(F)ccc2s1` [Example 1136, (R)-2-cyclopropyl-1-(4-(5-fluorobenzo[d]thiazol-2-yl)-6,7-dihydro-1H-imidazo[4,5-c]pyridin-5(4H)-yl)ethanone], the AC50 (24 hrs compound incubation) lay within 1000 to 5000 nM.

Regarding `Cc1cccc2sc([C@H]3c4nc[nH]c4CCN3C(=O)c3ocnc3C#N)nc12` [Example 2020, (R)-5-(4-(4-methylbenzo[d]thiazol-2-yl)-4,5,6,7-tetrahydro-1H-imidazo[4,5-c]pyridine-5-carbonyl)oxazole-4-carbonitrile], the concentration at half-maximal activity (AC50) (24 hrs compound incubation) was above 5000 nM. On to `Cc1nc(NC2CC2)oc1C(=O)N1CCCc2[nH]cnc2C1c1nc2ccccc2s1` (stereo not drawn), for which the AC50 (24 hrs with compound) is above 5000 nM.
